Where “and” joins values, the source holds several entries; their conditions need not be identical. Equal values may be shown once.

T1 sequence (P42330 whole entry): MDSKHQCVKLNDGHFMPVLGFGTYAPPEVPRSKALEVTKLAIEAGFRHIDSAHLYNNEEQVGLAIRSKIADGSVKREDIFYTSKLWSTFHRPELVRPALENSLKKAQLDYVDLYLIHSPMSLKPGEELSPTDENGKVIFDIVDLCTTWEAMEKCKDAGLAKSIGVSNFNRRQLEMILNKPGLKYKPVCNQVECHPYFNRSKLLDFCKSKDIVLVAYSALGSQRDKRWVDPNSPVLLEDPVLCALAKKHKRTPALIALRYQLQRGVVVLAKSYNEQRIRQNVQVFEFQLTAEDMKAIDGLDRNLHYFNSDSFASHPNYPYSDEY

The target of one experiment is T1, AKR1C3 (Homo sapiens (Human), UniProt P42330). Nature of the experiment: AKR1C3 enzyme inhibition assay (Coumberone to Coumberol fluorescence). Format: biochemical. The settings on record: recombinant human AKR1C3, 15 min pre-incubation, 90 min at 22° C.; repeated lines = two experimental determinations. On the procedure:
The AKR1C3-inhibitory activity of the substances of the present invention was measured in the AKR1C3 assay described in the paragraphs below.
Essentially, the enzyme activity is measured by quantification of the Coumberol from Coumberone (Halim, M., Yee, D. J., and Sames, D., J. AM. CHEM. SOC. 130, 14123-14128 (2008) and Yee, D. J., Balsanek, V., Bauman, D. R., Penning, T. M., and Sames, D., Proc. Natl. Acad. Sci. USA 103, 13304-13309 (2006)). In this test, the increase of the highly fluorescent Coumberol by NADPH- (nicotinamide adenine dinucleotide phosphate)-dependent reduction of the non-fluorescent Coumberone by AKR1C3 can be determined.
The enzyme used was recombinant human AKR1C3 (Aldo-keto reductase family 1 member C3) (GenBank Accession No. NM_003739). This was expressed in E. coli as GST (glutathione S transferase) fusion protein and purified by glutathione Sepharose affinity chromatography. The GST was removed by digestion with thrombin and subsequent size exclusion chromatography (Dufort, I., Rheault, P., Huang, X F., Soucy, P., and Luu-The, V., Endocrinology 140, 568-574 (1999)).
For the assay, 50 nl of a 100-fold concentrated solution of the test substance in DMSO were pipetted into a black low-volume 384-well microtiter plate (Greiner Bio-One, Frickenhausen, Germany), 2.0 μl of a solution of AKR1C3 in assay buffer [50 mM potassium phosphate buffer pH 7, 1 mM DTT, 0.0022% (w/v) Pluronic F-127, 0.01% BSA (w/v) and protease inhibitor cocktail (Complete, EDTA-free Protease Inhibitor Cocktail from Roche)] were added and the mixture was incubated for 15 min to allow pre-binding of the substances to the enzyme prior to the enzyme reaction. The enzyme reaction was then started by addition of 3 μl of a solution of NADPH (16.7 μM→final concentration in 5 μl of assay volume is 10 μM) and Coumberone (0.5 μM→final concentration in 5 μl of assay volume is 0.3 μM) in assay buffer, and the resulting mixture was incubated at 22° C. for the reaction time of 90 min. The concentration of the AKR1C3 was adapted to the respective activity of the enzyme preparation and adjusted such that the assay was carried out in the linear range. Typical concentrations were in the region of 1 nM. The reaction was stopped by addition of 5 μl of a stop solution consisting of the inhibitor EM-1404 [F. Labrie et al. U.S. Pat. No. 6,541,463, 2003] (2 μM→final concentration in […] is 1 μM). The fluorescence of the Coumberole was then measured at 520 nm (excitation at 380 nm) using a suitable measuring instrument (Pherastar from BMG Labtechnologies). The intensity of the fluorescence was used as a measure of the amount of Coumberole formed and thus of the enzyme activity of AKR1C3. The data were normalized (enzyme reaction without inhibitor=0% inhibition; all other assay components, but no enzyme=100% inhibition).
As described, the pharmacological substances claimed were examined for their inhibitory activity on the AKR1C3 enzyme (see Table 1). The compounds claimed show a strong inhibition of AKR1C3 in vitro (IC50 values <200 nM) and in most cases even IC50 values <50 nM.
For the compound `Cc1ccc(C2=CC[C@H]3[C@@H]4CCc5cc(OCC(=O)O)ccc5[C@H]4CC[C@]23C)cn1` [Example 4, {[17-(6-Methylpyridin-3-yl)estra-1,3,5(10),16-tetraen-3-yl]oxy}acetic acid], the IC50 is 136 nM. For `CCC(Oc1ccc2c(c1)CC[C@@H]1[C@@H]2CC[C@]2(C)C(c3cncc(F)c3)=CC[C@@H]12)C(=O)O` (mixture of isomers) [Example 11, (RS)-2-{[17-(5-Fluoropyridin-3-yl)estra-1,3,5(10),16-tetraen-3-yl]oxy}butanoic acid], the IC50 was determined as 2.5 nM.

For the compound `C[C@]12CC[C@@H]3c4ccc(OCCCO)cc4CC[C@H]3[C@@H]1CC=C2c1cncc(F)c1` [Example 15, 3-{[17-(5-Fluoropyridin-3-yl)estra-1,3,5(10),16-tetraen-3-yl]oxy}propan-1-ol], the IC50 stood at 54 nM. The same measure, in the same setting: the value for `Cc1cc(C2=CC[C@H]3[C@@H]4CCc5cc(OCC(=O)O)ccc5[C@H]4CC[C@]23C)cnn1` [Example 7, {[17-(6-Methylpyridazin-4-yl)estra-1,3,5(10),16-tetraen-3-yl]oxy}acetic acid] was 1.4 nM. Same read-out and setting: the value for `C[C@]12CC[C@@H]3c4ccc(OCC(O)CO)cc4CC[C@H]3[C@@H]1CC=C2c1cncc(F)c1` (mixture of isomers) [Example 17, (RS)-3-{[17-(5-Fluoropyridin-3-yl)estra-1,3,5(10),16-tetraen-3-yl]oxy}propan-1,2-diol] was 25 nM; that for `CC(Oc1ccc2c(c1)CC[C@@H]1[C@@H]2CC[C@]2(C)C(c3cncc(F)c3)=CC[C@@H]12)C(N)=O` (mixture of isomers) [Example 14, (RS)-2-{[17-(5-Fluoropyridin-3-yl)estra-1,3,5(10),16-tetraen-3-yl]oxy}propanamide] was 20 nM. Turning to `COCC(Oc1ccc2c(c1)CC[C@@H]1[C@@H]2CC[C@]2(C)C(c3cncc(F)c3)=CC[C@@H]12)C(=O)O` (mixture of isomers) [Example 12, (RS)-2-{[17-(5-Fluoropyridin-3-yl)estra-1,3,5(10),16-tetraen-3-yl]oxy}-3-methoxy-propanoic acid], the IC50 was found to be 4 nM. Turning to `C[C@]12CC[C@@H]3c4ccc(OCC(=O)O)cc4CC[C@H]3[C@@H]1CC=C2c1cncnc1` [Example 5, {[17-(Pyrimidin-5-yl)estra-1,3,5(10),16-tetraen-3-yl]oxy}acetic acid], the IC50 was found to be 89 nM. Consider `CC(C)(CO)COc1ccc2c(c1)CC[C@@H]1[C@@H]2CC[C@]2(C)C(c3cncc(F)c3)=CC[C@@H]12` [Example 16, 3-{[17-(5-Fluoropyridin-3-yl)estra-1,3,5(10),16-tetraen-3-yl]oxy}-2,2-dimethylpropan-1-ol], for which the IC50 came to 124 nM. With `C[C@]12CC[C@@H]3c4ccc(OCC(=O)O)cc4CC[C@H]3[C@@H]1CC=C2c1cncc(F)c1` [Example 3, {[17-(5-Fluoropyridin-3-yl)estra-1,3,5(10),16-tetraen-3-yl]oxy}acetic acid], the IC50 is 16 nM and 8.6 nM.

For the compound `C[C@]12CC[C@@H]3c4ccc(OCC(=O)O)cc4CC[C@H]3[C@@H]1CC=C2c1cncc(C(F)(F)F)c1` [Example 2, ({17-[5-(Trifluoromethyl)pyridin-3-yl]estra-1,3,5(10),16-tetraen-3-yl}oxy)acetic acid], the IC50 was 33 nM and 23 nM. On to `C[C@]12CC[C@@H]3c4ccc(OCCCC(=O)O)cc4CC[C@H]3[C@@H]1CC=C2c1cncc(F)c1` [Example 9, 4-{[17-(5-Fluoropyridin-3-yl)estra-1,3,5(10),16-tetraen-3-yl]oxy}butanoic acid], for which the IC50 came out at 42 nM.

In the case of `CC(C)(COc1ccc2c(c1)CC[C@@H]1[C@@H]2CC[C@]2(C)C(c3cncc(F)c3)=CC[C@@H]12)C(=O)O` [Example 8, 3-{[17-(5-Fluoropyridin-3-yl)estra-1,3,5(10),16-tetraen-3-yl]oxy}-2,2-dimethylpropanoic acid], the IC50 was 12 nM and 11 nM. `CC(Oc1ccc2c(c1)CC[C@@H]1[C@@H]2CC[C@]2(C)C(c3cncc(F)c3)=CC[C@@H]12)C(=O)O` (mixture of isomers) [Example 10, (RS)-2-{[17-(5-Fluoropyridin-3-yl)estra-1,3,5(10),16-tetraen-3-yl]oxy}propanoic acid]: the IC50 turned out to be 2.7 nM. As for `CCNC(=O)COc1ccc2c(c1)CC[C@@H]1[C@@H]2CC[C@]2(C)C(c3cncc(C(F)(F)F)c3)=CC[C@@H]12` [Example 19, N-Ethyl-2-({17-[5-(trifluoromethyl)pyridin-3-yl]estra-1,3,5(10),16-tetraen-3-yl}oxy)acetamide], the IC50 came to 53 nM. Turning to `C[C@]12CC[C@@H]3c4ccc(OC(C(=O)O)c5ccccc5)cc4CC[C@H]3[C@@H]1CC=C2c1cncc(F)c1` (mixture of isomers) [Example 18, (RS)-{[17-(5-Fluoropyridin-3-yl)estra-1,3,5(10),16-tetraen-3-yl]oxy}(phenyl)acetic acid], the IC50 was determined as 10 nM. With `C[C@]12CC[C@@H]3c4ccc(OCC(=O)O)cc4CC[C@H]3[C@@H]1CC=C2c1cncc(C(=O)O)c1` [Example 6, 5-[3-(Carboxymethoxy)estra-1,3,5(10),16-tetraen-17-yl]nicotinic acid], the IC50 stood at 9.2 nM. In the case of `CC(Oc1ccc2c(c1)CC[C@@H]1[C@@H]2CC[C@]2(C)C(c3cccnc3)=CC[C@@H]12)C(=O)O` (mixture of isomers) [Example 13, (RS)-2-{[17-(3-Pyridyl)estra-1,3,5(10),16-tetraen-3-yl]oxy}propanoic acid], the IC50 stood at 2.8 nM.

A further experiment concerns the target T1, AKR1C3. Nature of the experiment: AKR1C3 inhibition in a cell-based system (HEK293 cells transfected with AKR1C3 expression plasmid, coumberol fluorescence). The settings on record: HEK293 cells transfected with AKR1C3, incubation overnight; repeated lines = independent determinations; read-out: Cellular AKR1C3 inhibition IC50. On the procedure:
The inhibition of AKR1C3 by the substances described in the present invention was measured in a cell-based assay using […] as substrate for the AKR1C3 (Halim, M., Yee, D. J., and Sames, D., J. AM. CHEM. SOC. 130, 14123-14128 (2008) and Yee, D. J., Balsanek, V., Bauman, D. R., Penning, T. M., and Sames, D., Proc. Natl. Acad. Sci. USA 103, 13304-13309 (2006)) (cf. Example 20).
The cell system used were HEK293 cells (ATCC, USA) (cell culture medium: DMEM, 1.5 g glucose, 10% FCS, PSG). The cells were transfected in an AKR1C3 expression plasmid (pCMV6-AC-AKR1C3, GenBank Accession No. NM_003739.4) overnight (X-tremeGENE HP, Roche). The next morning, the cells were sown in black 96well cell culture plates at a cell density of 40000 cells/well (Greiner Bio-One, Frickenhausen, Germany). After 7 h, the cells were incubated with the test substances (dissolved in 100× concentration in DMSO, final concentration between 10^−11M and 10^−5M) and […] (dissolved in cell culture medium, final concentration 5×10^−6M) overnight. The next morning, the fluorescence of coumberol was measured at 535 nm (excitation at 355 nm) using a suitable measuring instrument (Mithras, from Berthold). The fluorescence intensity was used as a measure of the amount of coumberol formed and thus of the enzyme activity of AKR1C3. The data were normalized (transfected cells without inhibitor, only DMSO=0% inhibition; transfected cells, 10 μM inhibitor EM-1404 [F. Labrie et al. U.S. Pat. No. 6,541,463, 2003]=100% inhibition), and the IC50 values were calculated using a 4-parameter fit.
In the cell-based assay described above, the pharmacological substances claimed were examined for their inhibitory activity on the AKR1C3 enzyme (see Table 2).
In the case of `C[C@]12CC[C@@H]3c4ccc(OCC(=O)O)cc4CC[C@H]3[C@@H]1CC=C2c1cncc(F)c1` [Example 3, {[17-(5-Fluoropyridin-3-yl)estra-1,3,5(10),16-tetraen-3-yl]oxy}acetic acid], the IC50 is 49 nM and 56 nM and 31 nM. Regarding `C[C@]12CC[C@@H]3c4ccc(OCC(=O)O)cc4CC[C@H]3[C@@H]1CC=C2c1cncc(C(F)(F)F)c1` [Example 2, ({17-[5-(Trifluoromethyl)pyridin-3-yl]estra-1,3,5(10),16-tetraen-3-yl}oxy)acetic acid], the IC50 is 48 nM and 68 nM. Same read-out and setting: the value for `CC(C)(COc1ccc2c(c1)CC[C@@H]1[C@@H]2CC[C@]2(C)C(c3cncc(F)c3)=CC[C@@H]12)C(=O)O` [Example 8, 3-{[17-(5-Fluoropyridin-3-yl)estra-1,3,5(10),16-tetraen-3-yl]oxy}-2,2-dimethylpropanoic acid] was 170 nM and 220 nM.

In general, IC50 refers to the concentration needed to halve the response being measured.
